Data from US9855249B2, “Isoxazole compounds and methods for the treatment of cystic fibrosis” (FLATLEY DISCOVERY LAB, LLC, priority 2014, dated 2018).

System: CFTR mediated chloride current in Primary CF airway epithelial cells
Assay: Equivalent current assay in primary CF airway epithelial cells (NAUC)
Format: cell-based
Conditions: 24 h treatment, stimulated with forskolin and VX770, normalized to positive control 3 μM VX809
Protocol: Primary CF airway epithelial cells were obtained from the UNC Cystic Fibrosis Tissue Procurement and Cell Culture Core. The cells are grown at 37° C. in a Heracell 150i incubator using growth media (BEGM, Fischer). Cells were then transferred to differentiation media (ALI, UNC) for a minimum of 4 weeks on coated Costar snapwells. Two days before the Ussing assay the mucus on the apical surface of the cells was aspirated after incubating with 200 μL of differentiation Media for at least thirty (30) minutes. One day before the Ussing assay test compounds were added to the basolateral surface of the cells at various test concentrations dissolved in DMSO. Duplicate wells were prepared giving a n=3 or n=4 protocol.
Cells were treated for 24 hours with various combinations and concentrations of the test articles, reference standard (3 μM VX809, positive control). Compounds stock solutions were prepared in DMSO and diluted 1/1000 into ALI media to their final assay concentration. Cells were treated with combination solutions (2 mL of each dilution) and incubated at 37° C. for 24 h.
For the equivalent current assay, cells on four Transwell (24-well) plates were treated. Each Transwell plate was filled with 200 μl of HBS on the apical surface and 2 ml on the basolateral surface. Plates were placed horizontally in a heated mount at 37° C., and equilibrated for several minutes. Resting current was measured for 15 min and then blocked by the apical addition of 5 μM benzamil. After 20 min, 10 μM forskolin and 1 μM VX770 were added to both the apical and basolateral side to stimulate CFTR. An increase in chloride current is seen as an upward deflection of the trace. After another 30 min, CFTR-172 (a CFTR inhibitor, 2 μM) and/or bumetanide (20 μM) was added to block CFTR mediated chloride current.
The raw data, current vs. time for the Ussing chamber (sampling interval: 10 s) and voltage vs. time and resistance vs. time for the equivalent current assay (sampling interval: 5 minutes) were transferred to Excel (Microsoft Office Professional, version 14.0.7106.5003) for analysis. CFTR specific current was measured as the average amplitude of the increase in current elicited upon addition forskolin and ending upon addition of the CFTR channel specific blocker CFTR-172. This average is equivalent to the sum of the average forskolin activated and the average VX770-potentiated currents. The average current measured in vehicle (0.1% DMSO) treated cells, Iv, was subtracted from the current for the test article, ITA, or from the corrector reference standard VX809 (3 μM ISTD. For replicate measurements, the average vehicle subtracted response for the test article, was normalized to the average vehicle subtracted […] response of the reference corrector VX809 (3 μM). INSC=(ITA−IV)(ave)/(ISTD−IV)(ave) (Equation 1)
A second endpoint, for the equivalent current assay, evaluated was NAUC, the normalized area under the curve (AUC) measuring the response after addition of forskolin and VX770 to the time point right before the addition of the CFTR inhibitor. The AUC is effectively the average response multiplied by the duration of the response. The AUC of the test article, AUCTA was then corrected by subtracting the average vehicle response, AUCV,ave over the same time range, and normalized as for the inhibitor-sensitive current to the difference of the corrector reference standard VX809 (3 μM VX809r,ave and the vehicle response: NAUCTA=[AUCTA−AUCV,ave]/[AUCVx809r,ave−AUCV,ave](Equation 2).
The normalized value for DMSO is 0.0 and for VX-809 alone is 1.0. Combinations of compounds with VX-809 that give normalized values greater than 1.0 show activity in the combination assay. A value of 2 means the test compound doubles the effect to VX-809 alone.
Experiments were run with a minimum of n=4 replicates per concentration. […]

Structure (SMILES)	NAUC (normalized area under the curve), Test Conc 3 uM	NAUC (normalized area under the curve), Test Conc 10 uM
CN1CCN(C(=O)CCNC(=O)c2cc(-c3ccc(F)cc3)on2)CC1 [Example 1, 5-(4-fluorophenyl)-N-(3-(4-methylpiperazin-1-yl)-3-oxopropyl)isoxazole-3-carboxamide]	++ (NAUC “++” refers to an observed NAUC 170-140% of positive control)	+++ (NAUC “+++” refers to an observed NAUC >170% of positive control)
O=C(NCCC(=O)N1CCCC1)c1cc(-c2ccc(F)cc2)on1 [Example 2]	++ (NAUC “++” refers to an observed NAUC 170-140% of positive control)	+++ (NAUC “+++” refers to an observed NAUC >170% of positive control)
CCN(CC)C(=O)CCNC(=O)c1cc(-c2ccc(F)cc2)on1 [Example 3]	++ (NAUC “++” refers to an observed NAUC 170-140% of positive control)	+++ (NAUC “+++” refers to an observed NAUC >170% of positive control)
O=C(NCCC(=O)N1CCCCC1)c1cc(-c2ccc(F)cc2)on1 [Example 4]	++ (NAUC “++” refers to an observed NAUC 170-140% of positive control)	+++ (NAUC “+++” refers to an observed NAUC >170% of positive control)
O=C(CCNC(=O)c1cc(-c2ccc(F)cc2)on1)NCC1CC1 [Example 6]	++ (NAUC “++” refers to an observed NAUC 170-140% of positive control)	+++ (NAUC “+++” refers to an observed NAUC >170% of positive control)
O=C(NCCC(=O)N1CCC1)c1cc(-c2ccc(F)cc2)on1 [Example 8]	+++ (NAUC “+++” refers to an observed NAUC >170% of positive control)	+++ (NAUC “+++” refers to an observed NAUC >170% of positive control)
O=C(NCCC(=O)N1CCOCC1)c1cc(-c2ccc(F)cc2)on1 [Example 10]	++ (NAUC “++” refers to an observed NAUC 170-140% of positive control)	+++ (NAUC “+++” refers to an observed NAUC >170% of positive control)
O=C(CCNC(=O)c1cc(-c2ccc(F)cc2)on1)Nc1ccccn1 [Example 13]	+ (NAUC “+” refers to an observed NAUC <140% of positive control)	++ (NAUC “++” refers to an observed NAUC 170-140% of positive control)
CN1CCN(C(=O)CCCNC(=O)c2cc(-c3ccc(F)cc3)on2)CC1 [Example 14, 5-(4-fluorophenyl)-N-(4-(4-methylpiperazin-1-yl)-4-oxobutyl)isoxazole-3-carboxamide]	+++ (NAUC “+++” refers to an observed NAUC >170% of positive control)	+++ (NAUC “+++” refers to an observed NAUC >170% of positive control)
CN1CCN(C(=O)CCCCNC(=O)c2cc(-c3ccc(F)cc3)on2)CC1 [Example 15, 5-(4-fluorophenyl)-N-(5-(4-methylpiperazin-1-yl)-5-oxopentyl)isoxazole-3-carboxamide]	+++ (NAUC “+++” refers to an observed NAUC >170% of positive control)	+++ (NAUC “+++” refers to an observed NAUC >170% of positive control)
O=C(NCCCCC(=O)N1CCC1)c1cc(-c2ccc(F)cc2)on1 [Example 16, N-(5-(azetidin-1-yl)-5-oxopentyl)-5-(4-fluorophenyl)isoxazole-3-carboxamide]	+++ (NAUC “+++” refers to an observed NAUC >170% of positive control)	+++ (NAUC “+++” refers to an observed NAUC >170% of positive control)
O=C(NCCc1ccccc1)c1cc(-c2ccc(F)cc2)on1 [Example 17, 5-(4-fluorophenyl)-N-phenethylisoxazole-3-carboxamide]	+ (NAUC “+” refers to an observed NAUC <140% of positive control)	++ (NAUC “++” refers to an observed NAUC 170-140% of positive control)
NS(=O)(=O)c1ccc(CNC(=O)c2cc(-c3ccc(F)cc3)on2)cc1 [Example 18]	++ (NAUC “++” refers to an observed NAUC 170-140% of positive control)	++ (NAUC “++” refers to an observed NAUC 170-140% of positive control)
CC(C)Oc1ccc(CNC(=O)c2cc(-c3ccc(F)cc3)on2)cc1 [Example 19]	+ (NAUC “+” refers to an observed NAUC <140% of positive control)	+ (NAUC “+” refers to an observed NAUC <140% of positive control)
CC(C)OCCNC(=O)c1cc(-c2ccc(F)cc2)on1 [Example 20]	+ (NAUC “+” refers to an observed NAUC <140% of positive control)	++ (NAUC “++” refers to an observed NAUC 170-140% of positive control)
O=C(NC[C@@H]1CCCO1)c1cc(-c2ccc(F)cc2)on1 [Example 21]	+ (NAUC “+” refers to an observed NAUC <140% of positive control)	++ (NAUC “++” refers to an observed NAUC 170-140% of positive control)
CC(C)CNC(=O)c1cc(-c2ccc(F)cc2)on1 [Example 22]	+ (NAUC “+” refers to an observed NAUC <140% of positive control)	++ (NAUC “++” refers to an observed NAUC 170-140% of positive control)
O=C(NCc1cccnc1)c1cc(-c2ccc(F)cc2)on1 [Example 24]	++ (NAUC “++” refers to an observed NAUC 170-140% of positive control)	++ (NAUC “++” refers to an observed NAUC 170-140% of positive control)
O=C(NCc1cccc(F)c1F)c1cc(-c2ccc(F)cc2)on1 [Example 25]	+ (NAUC “+” refers to an observed NAUC <140% of positive control)	+ (NAUC “+” refers to an observed NAUC <140% of positive control)
CCNC(=O)c1cc(-c2ccc(F)cc2)on1 [Example 26]	+++ (NAUC “+++” refers to an observed NAUC >170% of positive control)	+++ (NAUC “+++” refers to an observed NAUC >170% of positive control)
O=C(NCc1ccccc1)c1cc(-c2ccc(F)cc2)on1 [Example 27]	++ (NAUC “++” refers to an observed NAUC 170-140% of positive control)	++ (NAUC “++” refers to an observed NAUC 170-140% of positive control)
N#Cc1ccc(CNC(=O)c2cc(-c3ccc(F)cc3)on2)cc1 [Example 28]	+ (NAUC “+” refers to an observed NAUC <140% of positive control)	+ (NAUC “+” refers to an observed NAUC <140% of positive control)
O=C(NC1CCCC1)c1cc(-c2ccc(F)cc2)on1 [Example 29]	++ (NAUC “++” refers to an observed NAUC 170-140% of positive control)	++ (NAUC “++” refers to an observed NAUC 170-140% of positive control)
O=C(NC[C@H]1CCCO1)c1cc(-c2ccc(F)cc2)on1 [Example 30]	++ (NAUC “++” refers to an observed NAUC 170-140% of positive control)	++ (NAUC “++” refers to an observed NAUC 170-140% of positive control)
CC(C)CCNC(=O)c1cc(-c2ccc(F)cc2)on1 [Example 31]	++ (NAUC “++” refers to an observed NAUC 170-140% of positive control)	++ (NAUC “++” refers to an observed NAUC 170-140% of positive control)
